How the values were obtained:
WEHI-S cells [1] = assay: Induction of cell death in combination with chemotherapeutics; assay type: cell-based, murine; settings: together with etoposide, doxorubicin, staurosporin, vincristine and tamoxifen
Source text: (§1) Murine fibrosarcoma cells WEHI-S, Wn902, Wn912, and WEHI-R4 are normal, vector control, Hsp70 overexpressing, and hTNF resistant cells, respectively. Other cell types tested include: Human breast cancer cell types MCF7-S1 and MDA-MB-468, and non-tumorigekic immortalized breast epithelial cells HBL100. MCF7 casp3.1 and −3.3 and neo2 are single cell clones expressing caspase3 and vector. MCF7 pCEP, -Bcl2 WT, -Bcl2 NT, -Bcl2 Acta, and -Bcl2 Cb5 are single cell clones expressing vector, wildtype Bcl2, cytoplasma localized Bcl2, mitochondria localized Bcl2, and ER localized Bcl2 (Maria Høyer Hansen, Apoptosis Laboratory, Danish Cancer Society). Human neuroblastoma cell line SK-N-MC cells (ATCC, USA). […]
(§2) Cell viability was measured using the MTT reduction assay. Conversion of the tetrazolium salt 3-(4,5-dimethylthiazole-2-yl)-2,5-diphenyltetrasodiumbromide (MTT, SIGMA-Aldrich) into the blue-colored formazan product was assessed spectrophotometrically by absorption at 570 nm using a Versamax microplate reader (Molecular Devices). The survival rate was determined as the percentage of untreated cells or inhibitor-treated cells: Cells were seeded into 96-well plate, containing 200 μL media, and treated the following day with drugs. The effect on cell viability was assessed 24-60 h after drug addition by removal of 100 μL media and addition of 25 μL MTT solution (1 mg/mL in PBS, sterile filtered). […]

MCF7 cells = assay: Induction of apoptosis compared with reference sigma ligands, MCF7; assay type: cell-based, human; settings: versus Haloperidol and pentazocine
Source text: as §1, §2

WEHI-R4 cells = test system: WEHI-R4 cells
Description: WEHI-R4 cells (5×10^6) were implanted subcutaneously in the back of immunocompetent female BALB/c mice. Siramesine treatment commenced two days prior to tumor implant. Mice were divided into groups (5-9/group) and administered peroral 200 μL 1) vehicle (0.5% methylcellulose 15 in 0.9% NaCl solution), 2) 100 mg/kg/day Siramesine in suspension (in 0.5% methylcellulose 15 in 0.9% NaCl solution) 7 days per week. For combinational in vivo studies, 50 mg/kg siramesine was administered 7 days/week in combination with a single dose of etoposide (i.p.) up to 30 mg/kg (administered on day one). Tumor volumes were estimated by the use of a caliper. The effect of the drugs on the tumor growth was monitored over 14-21 days before the mice were sacrificed.

effector caspase = assay: Mode of cell death: nuclear morphology, caspase inhibitors, caspase 3/7-like activity; assay type: cell-based
Source text: (§3) The following protease inhibitors were used: zVAD-fmk, DEVD-fmk (Bachem Bubendorf, Switzerland), DEVD-CHO (Neosystems, Strasbourg, France), LEHD-CHO, zFA-fmk (Enzyme System Products, Livermore, Calif.), CA-074-Me (Peptides International, Louisville, Ky.), APC1138 (Celera Applied Biosystems, Foster City, Calif., USA),. Pepstatin A, PD150606, and calpain inhibitor I (CI) (Calbiochem, La Jolla, Calif.), TPCK (Boehringer Mannheim), pefabloc (AEBSF) (Roche Diagnostics, DK).
The cell death mode was assessed by the type of nuclear condensation and performed by hoechst staining (cell permeable Hoechst 33342, SIGMA-Aldrich) of drug-treated cells. Non cell permeable Sytox Green (Molecular Probes) was used to assay loss of membrane integrity and compared with nuclear morphological changes observed with Hoechst. Cells were incubated with 10.000× dilution of 25 mg/mL hoechst and /or 10.000× dilution of 5 mM sytox green for 5 min at 37° C. where after type of nuclear condensation and possible co-stain was analyzed using an inverted Olympus microscope IX-70.
(§4) To measure cytosolic cystein cathepsin enzyme activity, subconfluent cells seeded in 24-well plates were treated with an extraction buffer (250 mM sucrose, 20 mM HEPES, 10 mM KCl, 1.5 mM MgCl2, 1 mM EDTA, 1 mM EGTA, 1 mM pefablock; pH 7.5) containing 20 μg/mL digitonin for 12-15 min on ice. […]

[2] = test system: Tumor cells protected by ectopic expression of Bcl-2; assay: Killing of tumor cells with ectopic expression of Bcl-2; assay type: cell-based; settings: cells protected against most other anti-cancer drugs by ectopic expression of Bcl-2
Source text: as §1, §2

[3] = test system: cultured tumor cell lines originating from tumors of the prostate, breast and cervix; assay: Induction of programmed cell death in cultured tumor cell lines (MTT / LDH release); assay type: cell-based, human; settings: dose dependent, tumor cell lines of various origins incl. prostate
Source text: as §1, §2

[4] = test system: N1H3T3 murine fibroblasts transduced with v-Ha-ras or c-src; assay: Sensitivity of fibroblasts towards Siramesine after oncogenic transformation; assay type: cell-based; settings: upon oncogenic transformation by ras or src
Source text: as §1, §2

WEHI-S cells [5] = assay: Induction of apoptosis compared with reference sigma ligands, WEHI-S; assay type: cell-based, murine; settings: versus Haloperidol and pentazocine
Source text: as §1, §2

lysosomal cathepsins = assay: Release of lysosomal cathepsins (immunostaining of cathepsin B and L, purified lysosomes, cathepsin inhibitors); assay type: cell-based
Source text: as §3
as §4, with “ice. To measure total cellular cystein cathepsin enzyme activity, cells were treated with the above extraction buffer containing 200 μg/mL digitonin for 12-15 min on ice.” for “ice.”
Cells were exposed to the lysomotropic weak base and metachromatic fluorochrome acridine orange (AO, Molecular Probes) that accumulates in acidic compartments. […] Cells were either evaluated using an inverted Olympus microscope IX-70 or detached from the substratum and analyzed by flow cytometry using a FACSort (Becton Dickinson, San Jose, Calif.) with an argon ion laser with an output wavelength of 488 nm and analyzed using CELLQuest software. […]

p53 = p53 activation; assay type: cell-based

## Fc1ccc(-n2cc(CCCCN3CCC4(CC3)OCc3ccccc34)c3ccccc32)cc1 [Siramesine, 1′-[4-[1-(4-fluorophenyl)-1H-indole-3-yl]-1-butyl]-spiro[isobenzofuran-1(3H)4′-piperidine]]
WEHI-S cells [1]
  interaction with chemotherapeutics in induction of cell death: synergistic
MCF7 cells
  potency as inducer of apoptosis versus reference sigma ligands: significantly more potent inducer of apoptosis than Haloperidol and pentazocine
WEHI-R4 cells; BALB/c mice, siramesine alone, peroral
  effect on tumor growth: anti-tumorigenic effect
WEHI-R4 cells; BALB/c mice, siramesine and etoposide versus groups single-treated
  effect on tumor growth, combination with etoposide: combinational effect
WEHI-R4 cells; mouse, in vivo
  tolerability in vivo: well tolerated
Effector caspase
  effector caspase activation: absence of effector caspase activation
Effector caspase; based on nuclear morphological changes and absence of protection by pharmacological caspase inhibitors
  mode of death: caspase-independent
[2]
  killing of Bcl-2 expressing tumor cells: effectively killed
[3]
  induction of programmed cell death: effectively induces programmed cell death
[4]
  sensitivity of cells towards Siramesine: increased
WEHI-S cells [5]
  potency as inducer of apoptosis versus reference sigma ligands: significantly more potent inducer of apoptosis than Haloperidol and pentazocine
Lysosomal cathepsins
  effect of pharmacological cathepsin inhibitors on siramesine-induced death: can attenuate the death
Lysosomal cathepsins; immunohistochemical staining of cathepsin B and L, in vitro release from purified lysosomes
  release of lysosomal cathepsins into the cytosol: release of lysosomal cathepsins into the cytosol seems to be involved in the execution of the death process
p53
  activation of p53: does not activate p53
